# Test results published in US9017689B2, “Peptides for vaccine against birch allergy” (Circassia Limited, priority 2010, dated 2015).
# Where two headings read alike, the source gives them in different places. Ends that are not written are not given here.
# Assays:
# [1] = tested on: Peripheral blood mononuclear cells (PBMCs); assay: Cytokine release assay (IL-10, IL-13, IFN-g multiplex bead assay); format: cell-based, human; conditions: proportion of subjects in which peptide induced IL-13 or IFN-g above 100 pg/ml; 47 birch allergic subjects; peptide 100 μg/ml; 5 days
# Protocol: Peripheral blood mononuclear cells (PBMCs) were isolated from heparinised blood by Ficoll density gradient centrifugation. […] Following stimulation, culture supernatants (100 μl) were harvested for testing by multiplex bead assay.
# Multiplex cytokine bead assays (IL-10, IL-13, Interferon gamma (IFN-g)) were performed on thawed culture supernatants according to the manufacturer's instructions. Single measurements were performed for each culture supernatant sample. After completion of the multiplex assay, individual cytokine levels were determined by interpolation from the standard curve generated in the assay.
# [2] = Solubility screening in trehalose matrices pH 2.65 to 7.03; format: physicochemical; conditions: for solubility: read-out: Solubility [mg per ml];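 for all read-outs here: test items are peptides, each checked for solubility in every trehalose matrix, the matrices made up in distilled deionised water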
# Protocol: The solubility of each of the nine peptides was evaluated in each of the matrices in accordance with Appendix 1.
# Each matrix was prepared at a concentration of 10 mM of the buffering agent.
# The procedure indicated is for the preparation of 100 mL of each buffer, but alternative volumes can be prepared by adjusting the quantities. • 0.1M stock solutions of sodium citrate and potassium dihydrogen phosphate were prepared. • Weight of trehalose dihydrate equivalent to 260 mM was transferred to an appropriate mixing vessel containing 70-80 mL of distilled deionised water and allowed to dissolve. • 10 mL of the appropriate stock 0.1M buffer solution was added to the mixing vessel and stirred. • The pH of the matrix was adjusted to the desired value by adding 2 mM hydrochloric acid or 0.1M sodium hydroxide as required. • The solutions were finally diluted to 100 g weight and the pH re-assessed.
# [3] = 2 mM HCl and 260 mM trehalose dihydrate, pH 2.65
# [4] = 10 mM potassium dihydrogen phosphate and 260 mM trehalose dihydrate, pH 6.03
# [5] = 10 mM potassium dihydrogen phosphate and 260 mM trehalose dihydrate, pH 7.03
# [6] = 10 mM sodium citrate and 260 mM trehalose dihydrate, pH 3.01
# [7] = 10 mM sodium citrate and 260 mM trehalose dihydrate, pH 3.99
# [8] = 10 mM sodium citrate and 260 mM trehalose dihydrate, pH 5.02
# [9] = aqueous buffer, 10 mM potassium dihydrogen phosphate and 260 mM trehalose dihydrate, pH 6.03
# [10] = aqueous buffer, 10 mM potassium dihydrogen phosphate and 260 mM trehalose dihydrate, pH 7.03
# [11] = aqueous buffer, 10 mM sodium citrate and 260 mM trehalose dihydrate, pH 3.01
# [12] = aqueous buffer, 10 mM sodium citrate and 260 mM trehalose dihydrate, pH 3.99
# [13] = aqueous buffer, 10 mM sodium citrate and 260 mM trehalose dihydrate, pH 5.02
# [14] = water, 2 mM HCl and 260 mM trehalose dihydrate, pH 2.65
# [15] = 10 mM sodium citrate and 260 mM trehalose dihydrate, pH 6.01
# [16] = aqueous buffer, 10 mM sodium citrate and 260 mM trehalose dihydrate, pH 6.01
Sequence,"Comments (solubility on preparation) [2, 3]","Solubility [mg per ml 'as is'] [2, 3] [mg per ml ‘as is’]","Solubility [μmol per ml] [2, 3] [μmol per ml]","Solubility after 24 Hours [2, 3]","Commute (solubility on preparation) [2, 4]","Solubility [mg per ml 'as is'] [2, 4] [mg per ml ‘as is’]","Solubility [μmol per ml] [2, 4] [μmol per ml]","Solubility after 24 Hours [2, 4]","Comments (solubility on preparation) [2, 5]","Solubility [mg per ml 'as is'] [2, 5] [mg per ml ‘as is’]","Solubility [μmol per ml] [2, 5] [μmol per ml]","Solubility after 24 Hours [2, 5]","Comments (solubility on preparation) [2, 6]","Solubility [mg per ml 'as is'] [2, 6] [mg per ml ‘as is’]","Solubility [μmol per ml] [2, 6] [μmol per ml]","Solubility after 24 Hours [2, 6]","Solubility [mg per ml 'as is'] [2, 7] [mg per ml ‘as is’]","Solubility [μmol per ml] [2, 7] [μmol per ml]","Comments (solubility on preparation) [2, 8]","Solubility [mg per ml 'as is'] [2, 8] [mg per ml ‘as is’]",also measured
"IKYMVIQGEAGAVIRGK (GIKYMVIQGEAGAVIRGK; Betulaceae) [Bir13, Bet v2-derived peptide]",,,,,,,,,,,,,,,,,,,,,% responders [1]: 23%
KEMGETLLRAVESYLLAHS [Bir09B],Completely dissolved,12.20,4.942,Completely dissolved,Completely dissolved in,0.36,0.147,"Precipitated out,",Completely dissolved,21.70,8.790,Completely dissolved,Completely dissolved,11.62,4.707,Completely dissolved,11.40,4.618,Completely dissolved,12.75,"Comments (solubility on preparation) [2, 7]: Completely dissolved; Solubility after 24 Hours [2, 7]: Completely dissolved; Solubility [μmol per ml] [2, 8]: 5.165 μmol per ml; Solubility after 24 Hours [2, 8]: Completely dissolved; solubility [2, 9]: ≥ 315 µg/mL; solubility [2, 10]: ≥ 18900 µg/mL; solubility [2, 11]: ≥ 10100 µg/mL; solubility [2, 12]: ≥ 9920 µg/mL; solubility [2, 13]: ≥ 11100 µg/mL; solubility [2, 14]: ≥ 10600 µg/mL"
PAARMFKAFILEGDKLVPK [Bir02J],Completely dissolved,23.60,9.069,Completely dissolved,Completely dissolved,11.12,4.273,Completely dissolved,Completely dissolved,12.31,4.730,Completely dissolved,Completely dissolved in,0.38,0.147,"Precipitated out,",0.39,0.148,Completely dissolved in,0.34,"Solubility [mg per ml] [2, 6]: 0.314 mg per ml; Comments (solubility on preparation) [2, 7]: Completely dissolved in; Solubility after 24 Hours [2, 7]: Precipitated out,; Solubility [μmol per ml] [2, 8]: 0.132 μmol per ml; Solubility after 24 Hours [2, 8]: Precipitated out,; Comments (solubility on preparation) [2, 15]: Completely dissolved in; Solubility [mg per ml 'as is'] [2, 15]: 0.39 mg per ml ‘as is’; Solubility [μmol per ml] [2, 15]: 0.150 μmol per ml; Solubility after 24 Hours [2, 15]: Precipitated out,; solubility [2, 9]: ≥ 9110 µg/mL; solubility [2, 10]: ≥ 10100 µg/mL; solubility [2, 12]: ≥ 315 µg/mL; solubility [2, 13]: ≥ 281 µg/mL; solubility [2, 16]: ≥ 320 µg/mL; solubility [2, 14]: ≥ 19300 µg/mL"
PGTIKKISFPEGFPFKYV [Bir04],Completely dissolved,20.50,8.639,Completely dissolved,Completely dissolved,9.86,4.155,Completely dissolved,Completely dissolved,21.50,9.061,Completely dissolved,Completely dissolved,22.58,9.516,Completely dissolved,20.36,8.580,Completely dissolved,21.52,"Comments (solubility on preparation) [2, 7]: Completely dissolved; Solubility after 24 Hours [2, 7]: Completely dissolved; Solubility [μmol per ml] [2, 8]: 9.069 μmol per ml; Solubility after 24 Hours [2, 8]: Completely dissolved; Comments (solubility on preparation) [2, 15]: Completely dissolved.; Solubility [mg per ml 'as is'] [2, 15]: 10.11 mg per ml ‘as is’; Solubility [μmol per ml] [2, 15]: 4.261 μmol per ml; Solubility after 24 Hours [2, 15]: Completely dissolved.; solubility [2, 9]: ≥ 8540 µg/mL; solubility [2, 10]: ≥ 18600 µg/mL; solubility [2, 11]: ≥ 19600 µg/mL; solubility [2, 12]: ≥ 17600 µg/mL; solubility [2, 13]: ≥ 18600 µg/mL; solubility [2, 16]: ≥ 8760 µg/mL; solubility [2, 14]: ≥ 17800 µg/mL"
SNEIKIVATPEGGSILK [Bir07C],Completely dissolved,11.48,5.747,Completely dissolved,Completely dissolved in,0.42,0.208,"Precipitated out,",Completely dissolved,6.70,3.354,Completely dissolved,Completely dissolved,1.30,0.653,Completely dissolved,0.38,0.188,Completely dissolved,0.86,"Solubility [μmol per ml] [2, 8]: 0.433 μmol per ml; Solubility after 24 Hours [2, 8]: Completely dissolved; Comments (solubility on preparation) [2, 15]: Completely dissolved in; Solubility [mg per ml 'as is'] [2, 15]: 0.35 mg per ml ‘as is’; Solubility [μmol per ml] [2, 15]: 0.174 μmol per ml; Solubility after 24 Hours [2, 15]: Precipitated out,; solubility [2, 9]: ≥ 365 µg/mL; solubility [2, 10]: ≥ 5890 µg/mL; solubility [2, 11]: ≥ 1150 µg/mL; solubility [2, 12]: ≥ 330 µg/mL; solubility [2, 13]: ≥ 760 µg/mL; solubility [2, 16]: ≥ 306 µg/mL; solubility [2, 14]: ≥ 10100 µg/mL"
